Reference: patent US20250213575A1, “8-HETEROCYCLIC-3-(PHENYLSULFONYL)-[1,2,3]TRIAZOLO[1,5A]QUINAZOLIN-5(4H)-ONE DERIVATIVES AS ANTI-BACTERIALS” (priority 2022, published 2025)

Target: AgrA (Staphylococcus aureus, UniProt P0A0I7)
Assay: cell-based
Design: species or system S. aureus USA300 strain UAMS-1625
Conditions: for Ratio IC50 (in presence of HSA)/IC50 (in absence of HSA): 40 mg/mL HSA vs without HSA
[1] = IC50 at 40 mg/mL HSA, LB medium supplemented with 40 mg/mL human serum albumin
[2] = IC50 without HSA, LB medium, without HSA

Sequence of AgrA (P0A0I7 whole entry): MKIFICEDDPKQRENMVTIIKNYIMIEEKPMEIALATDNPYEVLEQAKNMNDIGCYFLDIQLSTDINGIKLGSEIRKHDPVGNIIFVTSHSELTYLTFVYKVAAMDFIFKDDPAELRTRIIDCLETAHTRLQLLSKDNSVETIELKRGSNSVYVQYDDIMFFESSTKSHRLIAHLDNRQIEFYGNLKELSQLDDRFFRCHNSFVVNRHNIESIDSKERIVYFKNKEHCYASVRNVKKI

Compound | Ratio IC50 (in presence of HSA)/IC50 (in absence of HSA) | IC50 [1] | IC50 [2] | IC50 at 40 mg/mL HSA (LB medium supplemented with 40 mg/mL human serum albumin) | IC50 without HSA (LB medium, without HSA)
CNC1CCN(c2ccc3c(=O)[nH]c4c(S(=O)(=O)c5ccc(C)cc5C)nnn4c3c2)C1 (stereo not drawn) [Compound 34, 3-(2,4-dimethylbenzenesulfonyl)-8-[3-(methylamino)pyrrolidin-1-yl]-4H,5H-[1,2,3]triazolo[1,5-a]quinazolin-5-one] | ++ (ratio ≤ 125) | 22.1 to 110 µM | < 2.21 µM | – | –
Cc1ccc(S(=O)(=O)c2nnn3c2[nH]c(=O)c2ccc(N4CC5(CC(C(=O)O)C5)C4)cc23)c(C)c1 [Compound 63, 2-[3-(2,4-Dimethyl-benzenesulfonyl)-5-oxo-4,5-dihydro-[1,2,3]triazolo[1,5-a]quinazolin-8-yl]-2-aza-spiro[3.3]heptane-6-carboxylic acid] | +++ (ratio ≤ 25) | < 20.3 µM | < 2.03 µM | – | –
3-(2,4-dimethylbenzenesulfonyl)-8-(piperazin-1-yl)-4H,5H-[1,2,3]triazolo[1,5-a]quinazolin-5-one [Compound 23] | +++ (ratio ≤ 25) | – | – | ++ (10 μg/mL < IC50 ≤ 50 μg/mL) | +++ (IC50 ≤ 1 μg/mL)
Cc1ccc(S(=O)(=O)c2nnn3c2[nH]c(=O)c2ccc(N4CCC5(CN(C)CCO5)C4)cc23)c(C)c1 (stereo not drawn) [Compound 8, 3-(2,4-dimethylbenzenesulfonyl)-8-{9-methyl-6-oxa-2,9-diazaspiro[4.5]decan-2-yl}-4H,5H-[1,2,3]triazolo[1,5-a]quinazolin-5-one] | +++ (ratio ≤ 25) | 19.7 to 98.3 µM | < 1.97 µM | – | –
Cc1ccc(S(=O)(=O)c2nnn3c2[nH]c(=O)c2ccc(N4CCn5ccnc5C4)cc23)c(C)c1 [Compound 54, 3-(2,4-dimethylbenzenesulfonyl)-8-{5H,6H,7H,8H-imidazo[1,2-a]pyrazin-7-yl}-4H,5H-[1,2,3]triazolo[1,5-a]quinazolin-5-one] | ++ (ratio ≤ 125) | 21 to 105 µM | 2.1 to 10.5 µM | – | –
Cc1ccc(S(=O)(=O)c2n[nH]n3c2nc(=O)c2ccc(N4CCN(C5CCOCC5)CC4)cc23)c(C)c1 [Compound 56, 3-(2,4-dimethylbenzenesulfonyl)-8-[4-(oxan-4-yl)piperazin-1-yl]-1H,5H-[1,2,3]triazolo[1,5-a]quinazolin-5-one] | +++ (ratio ≤ 25) | 19.1 to 95.7 µM | < 1.91 µM | – | –
Cc1ccc(S(=O)(=O)c2nnn3c2[nH]c(=O)c2ccc(N4CCN5CCCC5C4)cc23)c(C)c1 (stereo not drawn) [Compound 36, 3-(2,4-dimethylbenzenesulfonyl)-8-{octahydropyrrolo[1,2-a]pyrazin-2-yl}-4H,5H-[1,2,3]triazolo[1,5-a]quinazolin-5-one] | +++ (ratio ≤ 25) | 20.9 to 104 µM | < 2.09 µM | – | –
Cc1ccc(S(=O)(=O)c2nnn3c2[nH]c(=O)c2ccc(N4CC(C)NC(C)C4)cc23)c(C)c1 (stereo not drawn) [Compound 26, 3-(2,4-dimethylbenzenesulfonyl)-8-(3,5-dimethylpiperazin-1-yl)-4H,5H-[1,2,3]triazolo[1,5-a]quinazolin-5-one] | +++ (ratio ≤ 25) | 21.4 to 107 µM | 2.14 to 10.7 µM | – | –
Cc1ccc(S(=O)(=O)c2nnn3c2[nH]c(=O)c2cc(O)c(N4CCN(C)CC4)cc23)c(C)c1 [Compound 1, 3-(2,4-dimethylbenzenesulfonyl)-7-hydroxy-8-(4-methylpiperazin-1-yl)-4H,5H-[1,2,3]triazolo[1,5-a]quinazolin-5-one] | +++ (ratio ≤ 25) | < 21.3 µM | < 2.13 µM | – | –
Cc1ccc(S(=O)(=O)c2n[nH]n3c2nc(=O)c2ccc(N4CC5(CC(O)C5)C4)cc23)c(C)c1 [Compound 20, 3-(2,4-dimethylbenzenesulfonyl)-8-{6-hydroxy-2-azaspiro[3.3]heptan-2-yl}-1H,5H-[1,2,3]triazolo[1,5-a]quinazolin-5-one] | ++ (ratio ≤ 125) | 21.5 to 107 µM | < 2.15 µM | – | –
Cc1ccc(S(=O)(=O)c2nnn3c2[nH]c(=O)c2ccc(N4CCC45CN(C)C5)cc23)c(C)c1 [Compound 11, 3-(2,4-dimethylbenzenesulfonyl)-8-{6-methyl-1,6-diazaspiro[3.3]heptan-1-yl}-4H,5H-[1,2,3]triazolo[1,5-a]quinazolin-5-one] | +++ (ratio ≤ 25) | 21.5 to 108 µM | 2.15 to 10.8 µM | – | –
Cc1ccc(S(=O)(=O)c2nnn3c2[nH]c(=O)c2ccc(N4CCN(C)C(=O)C4)cc23)c(C)c1 [Compound 53, 4-[3-(2,4-dimethylbenzenesulfonyl)-5-oxo-4H,5H-[1,2,3]triazolo[1,5-a]quinazolin-8-yl]-1-methylpiperazin-2-one] | ++ (ratio ≤ 125) | 21.4 to 107 µM | < 2.14 µM | – | –
Cc1ccc(S(=O)(=O)c2nnn3c2[nH]c(=O)c2ccc(N4CCOC5(CN(C)C5)C4)cc23)c(C)c1 [Compound 10, 3-(2,4-dimethylbenzenesulfonyl)-8-{2-methyl-5-oxa-2,8-diazaspiro[3.5]nonan-8-yl}-4H,5H-[1,2,3]triazolo[1,5-a]quinazolin-5-one] | +++ (ratio ≤ 25) | 20.2 to 101 µM | 2.02 to 10.1 µM | – | –
Cc1ccc(S(=O)(=O)c2nnn3c2[nH]c(=O)c2ccc(N4CCN(CC(F)(F)F)CC4)cc23)c(C)c1 [Compound 51, 3-(2,4-dimethylbenzenesulfonyl)-8-[4-(2,2,2-trifluoroethyl)piperazin-1-yl]-4H,5H-[1,2,3]triazolo[1,5-a]quinazolin-5-one] | ++ (ratio ≤ 125) | 19.2 to 96.1 µM | < 1.92 µM | – | –
Cc1ccc(S(=O)(=O)c2nnn3c2[nH]c(=O)c2ccc(N4CCN(C(=O)C(C)C)CC4)cc23)c(C)c1 [Compound 52, 3-(2,4-dimethylbenzenesulfonyl)-8-[4-(2-methylpropanoyl)piperazin-1-yl]-4H,5H-[1,2,3]triazolo[1,5-a]quinazolin-5-one] | +++ (ratio ≤ 25) | 19.7 to 98.3 µM | < 1.97 µM | – | –
Cc1ccc(S(=O)(=O)c2nnn3c2[nH]c(=O)c2ccc(N4C[C@@H](C)N[C@@H](C)C4)cc23)c(C)c1 [Compound 24, 3-(2,4-dimethylbenzenesulfonyl)-8-[(3R,5S)-3,5-dimethylpiperazin-1-yl]-4H,5H-[1,2,3]triazolo[1,5-a]quinazolin-5-one] | +++ (ratio ≤ 25) | 21.4 to 107 µM | 2.14 to 10.7 µM | – | –
Cc1ccc(S(=O)(=O)c2nnn3c2[nH]c(=O)c2ccc(N4CCN(CCOCCO)CC4)cc23)c(C)c1 [Compound 45, 3-(2,4-dimethylbenzenesulfonyl)-8-{4-[2-(2-hydroxyethoxy)ethyl]piperazin-1-yl}-4H,5H-[1,2,3]triazolo[1,5-a]quinazolin-5-one] | +++ (ratio ≤ 25) | 19 to 94.9 µM | < 1.9 µM | – | –
Cc1ccc(S(=O)(=O)c2nnn3c2[nH]c(=O)c2ccc(N4CC5(COC5)C4)cc23)c(C)c1 [Compound 13, 3-(2,4-dimethylbenzenesulfonyl)-8-{2-oxa-6-azaspiro[3.3]heptan-6-yl}-4H,5H-[1,2,3]triazolo[1,5-a]quinazolin-5-one] | ++ (ratio ≤ 125) | 22.1 to 111 µM | < 2.21 µM | – | –
